Experimental data as given in patent US10292958B2, “Lipid-containing compositions and methods of use thereof” (ASHA NUTRITION SCIENCES, INC., priority 2008, dated 2019).

Columns and labels:
[1] = tested on: inflammation, immunity, infection; details: menopausal person; 11 g LA; ALA reduced from 1.8 g to 1.2 g
[2] = tested on: ovulation; test: Case study on ovulation, reproductive disorders; assay type: in vivo, human; details: person
Description: In a host subject cessation of ovulation (as indicated by watery pale menstrual cycles), intense ovulation-related pains and anovulatry menstruation at extremely low omega-6 fatty acids in diet were observed; olive oil being the main fat source. It is hypothesized herein that this was due to deficiency of omega-6 derived prostaglandins, which aid ovulation.

[3] = cited from earlier work; for effect on blood cholesterol: saturated fats of chain-length 12, 14 and 16

For `CC/C=C\C/C=C\C/C=C\CCCCCCCC(=O)O` [ALA, Alpha-linolenic Acid], the “symptoms (spinal burning sensation, heat in the body, delayed wound healing, vaginal yeast infection)” value [1] was “disappeared”.

In the case of `CC(C)Cc1ccc(C(C)C(=O)O)cc1` (stereo not shown) [Advil], the “cessation of ovulation, ovulation-related pains, anovulatory menstruation” value [2] is reported as “same phenomenon was observed”.

In the case of `CCCCCCCCCCCCCCCCCC(=O)O` [Stearic acid], the lowering of cholesterol ([3]; in vivo) is listed as 21%.

For `CCCCCCCCCCCC(=O)O` [lauric acid], the “effect on blood cholesterol” value [3] is given as “elevate blood cholesterol”.

For `CCCCCCCCCCCCCC(=O)O` [myristic acid], the “effect on blood cholesterol” value [3] is listed as “elevate blood cholesterol”.

In the case of `CCCCCCCC/C=C\CCCCCCCC(=O)O` [oleic acid], the “lowering of LDL” value ([3]; in vivo) is given as 15%.

In the case of `CCCCCCCCCCCCCCCC(=O)O` [palmitic acid], the “effect on blood cholesterol” value [3] is listed as “elevate blood cholesterol”.
